Results from patent US8735129B2, “Ginsenoside glycosidase derived from the genus Terrabacter, and use thereof” (Korea Research Institute of Bioscience and Biotechnology, priority 2009, dated 2014).
Values joined by “and” are separate entries in the source; they are usually repeats but may differ in a detail not shown here. Equal entries are not always repeated. Where two headings read alike, the source gives them in different places.

How the values were obtained:
Format in all cases: biochemical, Terrabacter ginsenosidimutans Gsoil 3082
[1] = tested on: purified recombinant BGL-GYP17; assay: Effects of metal ions and chemical agents on ginsenoside glycosidase activity (pNPGlc substrate)
[2] = tested on: recombinant Bgl-gyp17; assay: Enzymatic hydrolysis of PPD-type ginsenosides (TLC, HPLC, NMR); conditions: 0.2 U enzyme, 50 mM sodium phosphate pH 7.0, 37° C., hydrolysis of glucoses at C-3
Method: In order to analyze the specificity and selectivity of the recombinant enzyme for the hydrolysis of glucose at the C-3 and C-20 positions of PPD-type ginsenoside, ginsenoside Rb1, Rb2, Rc, Rd, and Rg3 were used as substrates. Each reaction mixture containing 0.2 U enzyme, 50 mM sodium phosphate buffer 0.1% (w/v) (pH 7.0), and the substrate was incubated at 37° C. Each sample was withdrawn at regular intervals, and an equal volume of water-saturated butanol was added to stop the reaction. The n-butanol fraction was evaporated to dryness, and any residual material was dissolved in CH3OH and then examined by TLC HPLC or NMR analysis.

[3] = tested on: recombinant Bgl-gyp17; assay: as above
[4] = tested on: Bgl-gyp17; assay: Substrate preference with chromogenic oNP and pNP glycosides; conditions: 2.0 mM substrate; for Relative activity (%): 50 mM sodium phosphate pH 7.0, 37° C., activity on ONPGlu = 100%
Method: 1 activity unit was defined as the release of o-nitrophenol or p-nitrophenol per minute. For analysis of substrate preference, 2.0 mM chromogenic oNP and pNP (p-nitrophenyl) were used as the substrates, and incubated at 37° C. for 5 minutes. The analyzed substrates (Sigma) were pNP-β-D-glucopyranoside, pNP-β-D-galactopyranoside, pNP-β-D-fucopyranoside, pNP-β-D-glucosaminide, pNP-β-L-arabinopyranoside, pNP-β-D-mannopyronoside, pNP-β-D-xylopyranoside, pNP-α-D-glucopyranoside, pNP-α-L-arabinopyranoside, pNP-α-L-arabinopyranoside, pNP-α-D-rhamnopyranoside, pNP-α-D-mannopyranoside, pNP-α-D-xylopyranoside, o-nitrophenol[oNP]-β-D-glucopyranoside, oNP-β-D-galactopyranoside, oNP-β-D-fucopyranoside, and oNP-β-D-galactopyranoside.
In order to examine the substrate specificity of Bgl-gyp17, it was incubated in 50 mM sodium phosphate buffer containing 2.0 mM βα and β-type p-NP (p-nitrophenyl) and oNP (O-nitrophenyl)-glycosidase at pH 7.0 and 37° C. […] The Km and Vmax for the hydrolysis of pNPGlc by ginsenoside glycosidase were determined using 0-2 mM substrate and the enzyme kinetics program reported by Cleland. The values measured by the program were 4.24 mM and 0.10 mmol*min^−1*mg of protein^−1 for pNpGlc.

[5] = 1 mM metal ion or reagent, 30 min at room temperature, pNPGlc substrate, 100% = 44.3 U/mg
[6] = 10 mM metal ion or reagent, 30 min at room temperature, pNPGlc substrate, 100% = 44.3 U/mg

OCCS [Beta-Mercaptoethanol]
Relative activity (%) [1, 5]: 98.4 ± 4.89% | Relative activity (%) [1, 6]: 102.5 ± 4.57%

CC(C)=CCC[C@](C)(O[C@@H]1O[C@H](CO[C@@H]2O[C@@H](CO)[C@H](O)[C@H]2O)[C@@H](O)[C@H](O)[C@H]1O)[C@H]1CC[C@]2(C)[C@@H]1[C@H](O)C[C@@H]1[C@@]3(C)CC[C@H](O[C@@H]4O[C@H](CO)[C@@H](O)[C@H](O)[C@H]4O)C(C)(C)[C@@H]3CC[C@]12C [C-Mc1, compound Mc1]
conversion of the ginsenoside by the enzyme (product) [2]: C-Mc

[Ca+2].[Cl-].[Cl-] [CaCl2]
Relative activity (%) [1, 5]: 91.8 ± 4.59% | Relative activity (%) [1, 6]: 101.5 ± 5.23%

[Cl-].[Cl-].[Co+2] [CoCl2]
Relative activity (%) [1]: 100.9 ± 8.43% and 97.0 ± 5.04%

[Cl][Cu][Cl] [CuCl2]
Relative activity (%) [1, 5]: 84.7 ± 4.48% | Relative activity (%) [1, 6]: 71.7 ± 5.07%

CC(C)=CCCC(C)(OC1OC(COC2OCC(O)C(O)C2O)C(O)C(O)C1O)C1CCC2(C)C1C(O)CC1C3(C)CCC(OC4OC(CO)C(O)C(O)C4O)C(C)(C)C3CCC12C (stereo not drawn) [C—O, compound O]
conversion of the ginsenoside by the enzyme (product) [2]: C—Y

O[C@@H](CS)[C@@H](O)CS [DTT]
Relative activity (%) [1, 5]: 96.7 ± 5.59% | Relative activity (%) [1, 6]: 96.6 ± 5.14%

O=C(O)CN(CCN(CC(=O)O)CC(=O)O)CC(=O)O [EDTA]
Relative activity (%) [1, 5]: 98.6 ± 6.49% | Relative activity (%) [1, 6]: 96.6 ± 4.52%

CC(C)=CCC[C@](C)(O[C@@H]1O[C@H](CO)[C@@H](O)[C@H](O)[C@H]1O)[C@H]1CC[C@]2(C)[C@@H]1[C@H](O)C[C@@H]1[C@@]3(C)CC[C@H](O[C@@H]4O[C@H](CO)[C@@H](O)[C@H](O)[C@H]4O[C@@H]4O[C@H](CO)[C@@H](O)[C@H](O)[C@H]4O)C(C)(C)[C@@H]3CC[C@]12C [Ginsenoside Rd]
conversion of the ginsenoside by the enzyme (product) [2]: converted into F2 | conversion of the ginsenoside by the enzyme (product) ([2]; listed as Rd): C—K

[Cl][Hg][Cl] [Hg^2+, HgCl2]
effect on Bgl-gyp17 activity [1]: strongly inhibited the activity

[Cl-].[K+] [KCl]
Relative activity (%) [1, 5]: 102.7 ± 4.65% | Relative activity (%) [1, 6]: 96.2 ± 4.64%

[Cl-].[Cl-].[Mg+2] [MgCl2]
Relative activity (%) [1, 5]: 94.8 ± 5.10% | Relative activity (%) [1, 6]: 95.2 ± 5.14%

[Cl][Mn][Cl] [MnCl2]
Relative activity (%) [1, 5]: 101.1 ± 5.45% | Relative activity (%) [1, 6]: 96.9 ± 4.79%

[Cl-].[Na+] [Nacl, NaCl]
Relative activity (%) [1]: 102.3 ± 5.15% and 97.7 ± 4.51%

CCCCCCCCCCCCOS(=O)(=O)[O-].[Na+] [SDS]
concentration showing an inhibitory effect [1]: ≥ 10 mM | Relative activity (%) [1, 5]: 94.8 ± 6.98% | Relative activity (%) [1, 6]: 2.7 ± 3.22%

[Cl-].[Cl-].[Zn+2] [ZnCl2]
Relative activity (%) [1, 5]: 92.8 ± 4.72% | Relative activity (%) [1, 6]: 72.8 ± 4.27%

CC(C)=CCC[C@](C)(O[C@@H]1O[C@H](CO)[C@@H](O)[C@H](O)[C@H]1O)[C@H]1CC[C@]2(C)[C@@H]1[C@H](O)C[C@@H]1[C@@]3(C)CC[C@H](O)C(C)(C)[C@@H]3CC[C@]12C [compound K]
time at which the final product was produced ([3]; Rb1 substrate, enzyme 1 mg/ml): 24 h

CC(C)=CCC[C@](C)(O)[C@H]1CC[C@]2(C)[C@@H]1[C@H](O)C[C@@H]1[C@@]3(C)CC[C@H](O[C@@H]4O[C@H](CO)[C@@H](O)[C@H](O)[C@H]4O[C@@H]4O[C@H](CO)[C@@H](O)[C@H](O)[C@H]4O)C(C)(C)[C@@H]3CC[C@]12C [ginsenoside Rg3]
conversion of the ginsenoside by the enzyme (product) [2]: produced ginsenoside Rh2 | conversion of the ginsenoside by the enzyme (product) ([2]; listed as Rg3): PPD

CC(C)=CCC[C@](C)(O[C@@H]1O[C@H](CO[C@@H]2O[C@H](CO)[C@@H](O)[C@H](O)[C@H]2O)[C@@H](O)[C@H](O)[C@H]1O)[C@H]1CC[C@]2(C)[C@@H]1[C@H](O)C[C@@H]1[C@@]3(C)CC[C@H](O)C(C)(C)[C@@H]3CC[C@]12C [gyp LXXV, gypenoside LXXV]
conversion of the ginsenoside by the enzyme (product) [2]: C—K | time at which it started to appear ([3]; Rb1 substrate, enzyme 1 mg/ml): 10 min | time of decrease to almost undetectable level ([3]; Rb1 substrate, enzyme 1 mg/ml): 24 h | time of maximum level ([3]; Rb1 substrate, enzyme 1 mg/ml): 2 h

CC(C)=CCC[C@](C)(O[C@@H]1O[C@H](CO[C@@H]2O[C@H](CO)[C@@H](O)[C@H](O)[C@H]2O)[C@@H](O)[C@H](O)[C@H]1O)[C@H]1CC[C@]2(C)[C@@H]1[C@H](O)C[C@@H]1[C@@]3(C)CC[C@H](O[C@@H]4O[C@H](CO)[C@@H](O)[C@H](O)[C@H]4O)C(C)(C)[C@@H]3CC[C@]12C [gyp XVII, gypenoside XVII]
conversion of the ginsenoside by the enzyme (product) [2]: C—K | conversion of the ginsenoside ([3]; printed: when ginsenoside Rb1 was 0.1 mg/ml): subsequently converted into gyp LXXV

O=[N+]([O-])c1ccccc1O[C@H]1O[C@H](CO)[C@H](O)[C@H](O)[C@H]1O [oNP-α-D-galactopyranoside]
Relative activity (%) [4]: 0%

C[C@H]1O[C@@H](Oc2ccccc2[N+](=O)[O-])[C@H](O)[C@@H](O)[C@H]1O [oNP-β-D-fucopyranoside]
Relative activity (%) [4]: 15.88 ± 0.544%

O=[N+]([O-])c1ccccc1O[C@@H]1O[C@H](CO)[C@H](O)[C@H](O)[C@H]1O [oNP-β-D-galatopyranoside]
Relative activity (%) [4]: 2.33 ± 0.081%

O=[N+]([O-])c1ccccc1O[C@@H]1O[C@H](CO)[C@@H](O)[C@H](O)[C@H]1O [oNP-β-D-glucopyranoside]
Relative activity (%) [4]: 100.00 ± 3.542% | activity toward substrate ([4]; pH 7.0, 37° C.): highest activity

O=[N+]([O-])c1ccc(O[C@H]2O[C@H](CO)[C@@H](O)[C@H](O)[C@H]2O)cc1 [pNP-α-D-glucopyranoside]
Relative activity (%) [4]: 1.12 ± 0.214%

O=[N+]([O-])c1ccc(O[C@H]2O[C@H](CO)[C@@H](O)[C@H](O)[C@@H]2O)cc1 [pNP-α-D-mannopyranoside]
Relative activity (%) [4]: 0%

O=[N+]([O-])c1ccc(O[C@@H]2O[C@@H](CO)[C@H](O)[C@H]2O)cc1 [pNP-α-L-arabinofuranoside]
Relative activity (%) [4]: 0%

O=[N+]([O-])c1ccc(O[C@@H]2OC[C@H](O)[C@H](O)[C@H]2O)cc1 [pNP-α-L-arabinopyranoside]
Relative activity (%) [4]: 0%

C[C@@H]1O[C@@H](Oc2ccc([N+](=O)[O-])cc2)[C@H](O)[C@H](O)[C@H]1O [pNP-α-L-rhamnopyranoside]
Relative activity (%) [4]: 0%

C[C@H]1O[C@@H](Oc2ccc([N+](=O)[O-])cc2)[C@H](O)[C@@H](O)[C@H]1O [pNP-β-D-fucopyranoside]
Relative activity (%) [4]: 6.98 ± 0.063%

O=[N+]([O-])c1ccc(O[C@@H]2O[C@H](CO)[C@H](O)[C@H](O)[C@H]2O)cc1 [pNP-β-D-glactopyranoside]
Relative activity (%) [4]: 0%

O=[N+]([O-])c1ccc(O[C@@H]2O[C@H](CO)[C@@H](O)[C@H](O)[C@H]2O)cc1 [pNP-β-D-glucopyranoside, p-nitrophenyl-β-D-glucopyranoside]
Relative activity (%) [4]: 89.52 ± 4.430%

N[C@H]1[C@H](Oc2ccc([N+](=O)[O-])cc2)O[C@H](CO)[C@@H](O)[C@@H]1O [pNP-β-D-glucosaminide]
Relative activity (%) [4]: 0%

O=[N+]([O-])c1ccc(O[C@@H]2O[C@H](CO)[C@@H](O)[C@H](O)[C@@H]2O)cc1 [pNP-β-D-mannopyranoside]
Relative activity (%) [4]: 0%

O=[N+]([O-])c1ccc(O[C@@H]2OC[C@@H](O)[C@H](O)[C@H]2O)cc1 [pNP-β-D-xylopyranoside]
Relative activity (%) [4]: 0%

O=[N+]([O-])c1ccc(OC2OCC(O)C(O)C2O)cc1 [pNP-β-L-binopyranoside]
Relative activity (%) [4]: 0%
